What all share (assay type): biochemical
Assay [1] addresses JAK2 (Homo sapiens (Human), UniProt O60674). Kind of assay: JAK2 Inhibition Assay (Omnia kinase fluorescence peptide substrate assay). From the text:
(§1) The assays described in Examples A, B, C and D for the determination of Tyk2, JAK1, JAK2 and JAK3 kinase activity, respectively, utilized the Omnia® Kinase fluorescence peptide substrate-based technology (Invitrogen). The specific components of the assay mixture are described in Examples A, B, C and D. In these assays, Mg^2+ is chelated upon phosphorylation of the Omnia peptide by the kinase to form a bridge between the chelation-enhanced fluorophore Sox and the phosphate, resulting in an increase in fluorescence emission at 485 nm when excited at […]. The reactions were therefore read at excitation 360 nm and emission was measured at 485 nm every 50 seconds for 45 minutes using a PerkinElmer EnVision Multilabel Plate Reader.
(§2) The final buffer conditions for Tyk2, JAK1, JAK2, and JAK3 assays were as follows: 25 mM HEPES, pH 7.4, 10 mM MgCl2, 0.01% Triton X-100 and 1 mM DTT.
(§3) Two-μL aliquots of these were transferred to a fresh plate for a ten-fold intermediate dilution with assay buffer. Five-μL aliquots of the diluted compounds were then transferred to 20-μL of assay mixtures described in Examples A, B, C and D for a final concentration of DMSO of 2%. […] For each plate, percent of control (POC) values were calculated for each well according to the following equation:
(§4) where Xmax=Average Uninhibited Controls • Xmin=Average Background IC50's were estimated from the POC's using a standard 4-parameter logistic model:
(§5) where A=Minimum Y (Bottom Asymptote) • B=Maximum Y (Top Asymptote) • C=EC50 • D=Slope Factor • X=Compound Concentration (nM) • Y=POC
(§6) The IC50 is defined as the concentration of inhibitor at which the POC equals 50 for the fitted curve.
Compounds of Formula I were screened for their ability to inhibit JAK2 using the general enzyme inhibition assay method, in which the assay mixture contained 1 mM ATP, 10 μM Omnia® Y7 peptide (Catalog # IVGN KNZ3071C, Invitrogen Corporation, Carlsbad, Calif.) and 4 nM JAK2 in a total volume of 25 μL. JAK2 was purchased from Invitrogen Corporation, Carlsbad, Calif. (catalog # IVGN PV4288).

Assay [2] concerns the target Human Tyk2 kinase domain (Homo sapiens (Human), UniProt P29597). Briefly: Tyk2 Inhibition Assay (Omnia kinase fluorescence peptide substrate assay).
Text: as §1, §2, §3, §4, §5, §6
Compounds of Formula I were screened for their ability to inhibit Tyk2 using the general enzyme inhibition assay method, in which the assay mixture contained 1 mM ATP, 8 μM Omnia® Y12 peptide (Catalog # IVGN KPZ3121C; Invitrogen Corporation, Carlsbad, Calif.) and 1 nM Tyk2 in a total volume of 25 μL. Human Tyk2 kinase domain, comprising amino acids 886 to 1187 with 10 additional histidine residues (histidine tag) on the carboxy terminus, was expressed and purified from bacculovirus in-house at Array BioPharma Inc. (Boulder, Colo.). The histidine tag was cleaved after purification using standard conditions.

Assay [3] has as its target JAK3 (Homo sapiens (Human), UniProt P52333). Briefly: JAK3 Inhibition Assay (Omnia kinase fluorescence peptide substrate assay). As to conditions: read-out: JAK3 Enzyme IC50 1 mM ATP, averaged IC50 ranges.
Text: as §1, §2
Two-μL aliquots of these were transferred to a fresh plate for a ten-fold intermediate dilution with assay buffer. Five-μL aliquots of the diluted compounds were then transferred to 20-μL of assay mixtures described in Examples A, B, C and D for a final concentration of DMSO of 2%. […] For each plate, percent of control (POC) values were calculated for each well according to the following equation: […]

In assay [4] the target is JAK1 (Homo sapiens (Human), UniProt P23458). Kind of assay: JAK1 Inhibition Assay (Omnia kinase fluorescence peptide substrate assay).
JAK1, sequence (P23458 whole entry): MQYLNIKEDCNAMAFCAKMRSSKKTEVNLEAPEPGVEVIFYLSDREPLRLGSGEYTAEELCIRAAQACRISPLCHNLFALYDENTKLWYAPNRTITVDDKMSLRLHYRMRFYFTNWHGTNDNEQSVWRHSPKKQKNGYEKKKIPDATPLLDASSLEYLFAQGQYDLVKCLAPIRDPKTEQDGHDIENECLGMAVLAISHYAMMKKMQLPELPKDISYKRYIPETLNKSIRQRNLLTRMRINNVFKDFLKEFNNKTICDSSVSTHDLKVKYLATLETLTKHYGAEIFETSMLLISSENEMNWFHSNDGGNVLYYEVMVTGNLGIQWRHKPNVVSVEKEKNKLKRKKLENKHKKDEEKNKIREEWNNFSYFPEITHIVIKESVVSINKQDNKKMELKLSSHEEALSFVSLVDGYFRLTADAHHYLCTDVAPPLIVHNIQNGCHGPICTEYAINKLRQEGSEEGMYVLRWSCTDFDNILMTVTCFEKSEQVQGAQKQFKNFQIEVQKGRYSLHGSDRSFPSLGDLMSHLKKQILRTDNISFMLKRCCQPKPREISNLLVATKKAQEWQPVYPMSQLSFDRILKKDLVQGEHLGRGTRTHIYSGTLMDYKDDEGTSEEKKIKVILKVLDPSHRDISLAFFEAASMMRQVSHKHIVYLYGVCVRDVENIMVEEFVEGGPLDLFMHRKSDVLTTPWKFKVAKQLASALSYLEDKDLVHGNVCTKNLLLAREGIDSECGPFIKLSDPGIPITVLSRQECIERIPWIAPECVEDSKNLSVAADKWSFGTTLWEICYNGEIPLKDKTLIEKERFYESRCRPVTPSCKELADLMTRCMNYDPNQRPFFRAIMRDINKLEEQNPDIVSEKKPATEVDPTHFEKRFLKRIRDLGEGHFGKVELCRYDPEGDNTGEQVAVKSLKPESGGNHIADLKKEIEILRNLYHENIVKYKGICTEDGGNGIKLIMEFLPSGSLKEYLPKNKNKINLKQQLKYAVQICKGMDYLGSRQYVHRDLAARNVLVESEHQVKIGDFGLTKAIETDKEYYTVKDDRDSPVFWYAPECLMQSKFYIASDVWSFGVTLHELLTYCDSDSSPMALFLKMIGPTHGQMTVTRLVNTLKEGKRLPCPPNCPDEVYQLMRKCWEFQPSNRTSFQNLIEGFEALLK
Text: as §1, §2, §3, §4, §5, §6
Compounds of Formula I were screened for their ability to inhibit JAK1 using the general enzyme inhibition assay method, in which the assay mixture contained 1 mM ATP, 8 μM Omnia® Y12 peptide (Catalog # IVGN KPZ3121C; Invitrogen Corporation, Carlsbad, Calif.) and 12.5 nM JAK1 in a total volume of 25 μL. JAK1 was purchased from Invitrogen Corporation, Carlsbad, Calif. (catalog # IVGN PV4775).

The mark [5] stands for this setting: read-out: JAK2 Enzyme IC50 1 mM ATP, 1 mM ATP, averaged IC50 ranges.
Setting [6] is: read-out: TYK2 Enzyme IC50 1 mM ATP, 1 mM ATP, averaged IC50 ranges.
The mark [7] stands for this setting: JAK1 Enzyme IC50 1 mM ATP, averaged IC50 ranges.

Like-named read-outs stand apart in the source and are kept apart here. Some results are limits rather than exact numbers.

Human Tyk2 kinase domain, sequence (P29597 886-1187): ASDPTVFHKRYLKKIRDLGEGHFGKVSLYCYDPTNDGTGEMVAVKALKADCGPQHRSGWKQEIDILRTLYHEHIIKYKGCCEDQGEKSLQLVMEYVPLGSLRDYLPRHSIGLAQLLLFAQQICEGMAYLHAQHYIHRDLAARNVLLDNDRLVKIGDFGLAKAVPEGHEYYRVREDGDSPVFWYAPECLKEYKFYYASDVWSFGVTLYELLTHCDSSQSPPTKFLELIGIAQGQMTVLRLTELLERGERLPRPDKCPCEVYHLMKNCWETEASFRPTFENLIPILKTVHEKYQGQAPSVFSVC
JAK2, sequence (O60674 whole entry): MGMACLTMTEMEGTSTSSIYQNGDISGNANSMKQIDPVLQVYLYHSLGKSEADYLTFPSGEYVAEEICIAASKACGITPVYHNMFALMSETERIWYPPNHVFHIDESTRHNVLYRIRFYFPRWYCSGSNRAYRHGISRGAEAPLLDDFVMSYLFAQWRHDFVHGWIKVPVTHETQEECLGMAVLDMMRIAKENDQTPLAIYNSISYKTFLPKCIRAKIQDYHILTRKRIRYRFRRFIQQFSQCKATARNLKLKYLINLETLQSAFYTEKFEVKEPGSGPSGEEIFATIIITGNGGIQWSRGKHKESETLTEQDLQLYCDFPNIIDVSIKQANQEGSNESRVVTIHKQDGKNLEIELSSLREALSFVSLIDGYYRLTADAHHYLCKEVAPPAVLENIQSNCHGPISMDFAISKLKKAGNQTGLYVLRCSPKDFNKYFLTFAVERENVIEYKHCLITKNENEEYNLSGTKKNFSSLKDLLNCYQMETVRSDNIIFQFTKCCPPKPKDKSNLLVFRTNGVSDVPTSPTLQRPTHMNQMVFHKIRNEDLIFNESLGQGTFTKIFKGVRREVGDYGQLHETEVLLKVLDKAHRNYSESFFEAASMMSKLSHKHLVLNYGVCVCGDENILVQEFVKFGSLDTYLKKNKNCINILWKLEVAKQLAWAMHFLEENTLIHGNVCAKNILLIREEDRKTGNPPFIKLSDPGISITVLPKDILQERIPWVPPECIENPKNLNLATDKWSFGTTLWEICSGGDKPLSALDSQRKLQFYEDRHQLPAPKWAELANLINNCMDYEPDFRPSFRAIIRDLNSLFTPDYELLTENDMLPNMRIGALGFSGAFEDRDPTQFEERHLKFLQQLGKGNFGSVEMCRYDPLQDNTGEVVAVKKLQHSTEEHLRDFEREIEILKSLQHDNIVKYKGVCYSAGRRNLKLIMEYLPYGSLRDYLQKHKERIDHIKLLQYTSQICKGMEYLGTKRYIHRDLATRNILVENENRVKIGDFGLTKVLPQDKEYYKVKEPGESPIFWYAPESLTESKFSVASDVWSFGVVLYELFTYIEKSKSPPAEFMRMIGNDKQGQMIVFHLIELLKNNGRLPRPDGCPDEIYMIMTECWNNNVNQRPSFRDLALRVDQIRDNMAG
JAK3, sequence (P52333 whole entry): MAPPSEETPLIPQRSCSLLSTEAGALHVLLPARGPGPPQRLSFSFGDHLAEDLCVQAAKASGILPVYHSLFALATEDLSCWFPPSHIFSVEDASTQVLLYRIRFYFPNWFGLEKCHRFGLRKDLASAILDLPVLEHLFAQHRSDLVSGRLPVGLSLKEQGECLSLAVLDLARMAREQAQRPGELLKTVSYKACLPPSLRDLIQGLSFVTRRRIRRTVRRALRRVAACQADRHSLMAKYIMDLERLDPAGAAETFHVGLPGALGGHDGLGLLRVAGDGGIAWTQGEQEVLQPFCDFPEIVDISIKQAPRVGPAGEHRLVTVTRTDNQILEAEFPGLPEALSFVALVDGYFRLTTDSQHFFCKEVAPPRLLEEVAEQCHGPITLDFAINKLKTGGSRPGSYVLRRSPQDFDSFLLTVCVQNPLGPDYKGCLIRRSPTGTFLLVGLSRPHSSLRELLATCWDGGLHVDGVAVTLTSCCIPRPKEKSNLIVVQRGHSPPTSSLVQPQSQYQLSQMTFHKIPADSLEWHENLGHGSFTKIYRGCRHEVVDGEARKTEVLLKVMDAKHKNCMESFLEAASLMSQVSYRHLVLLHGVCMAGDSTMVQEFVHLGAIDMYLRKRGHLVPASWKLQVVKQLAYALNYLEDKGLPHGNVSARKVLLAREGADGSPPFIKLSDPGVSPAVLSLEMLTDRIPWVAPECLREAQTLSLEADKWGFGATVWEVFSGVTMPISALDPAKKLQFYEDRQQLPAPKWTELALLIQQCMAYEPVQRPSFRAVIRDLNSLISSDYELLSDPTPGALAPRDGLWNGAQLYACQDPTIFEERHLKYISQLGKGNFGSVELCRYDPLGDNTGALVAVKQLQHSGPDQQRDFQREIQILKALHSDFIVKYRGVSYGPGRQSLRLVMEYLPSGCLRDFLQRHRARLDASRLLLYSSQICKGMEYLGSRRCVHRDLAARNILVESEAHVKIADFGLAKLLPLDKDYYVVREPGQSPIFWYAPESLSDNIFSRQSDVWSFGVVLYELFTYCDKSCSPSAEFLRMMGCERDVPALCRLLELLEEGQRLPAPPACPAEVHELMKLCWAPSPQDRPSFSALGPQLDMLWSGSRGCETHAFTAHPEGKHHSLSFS

Turning to `CC[C@H](C1CC1)n1cc(-c2nc(-c3cnn(C[C@@H](O)CO)c3)cn3nccc23)cn1` (single isomer, unassigned) [Example 213], the IC50 (as a rule, the concentration that inhibits the measured activity by half) in assay [1] (setting [5]) was in the range of 10 to 100 nM.

As for `CCC(CC)n1cc(-c2nc(-c3cnn(C4CS(=O)(=O)C4)c3)cn3nccc23)cn1` [Example 13, 3-(4-(4-(1-(pentan-3-yl)-1H-pyrazol-4-yl)pyrazolo[1,5-a]pyrazin-6-yl)-1H-pyrazol-1-yl)thietane 1,1-dioxide], in assay [1] (setting [5]), the IC50 was less than 10 nM. Still for that read-out and setting: in the case of `CCC(CC)n1cc(-c2nc(-c3cnn(C4CCN(C(C)=O)CC4)c3)cn3nccc23)cn1` [Example 31, 1-(4-(4-(4-(1-(pentan-3-yl)-1H-pyrazol-4-yl)pyrazolo[1,5-a]pyrazin-6-yl)-1H-pyrazol-1-yl)piperidin-1-yl)ethanone] it was less than 10 nM. Take `CCC(CC)n1cc(-c2nc(-c3cnn(C4CCN(S(C)(=O)=O)CC4)c3)cn3nccc23)cn1` [Example 32, 6-(1-(1-(methylsulfonyl)piperidin-4-yl)-1H-pyrazol-4-yl)-4-(1-(pentan-3-yL)-1H-pyrazol-4-yl)pyrazolo[1,5-a]pyrazine]: the IC50 in assay [1] (setting [5]) and in assay [2] (setting [6]) was less than 10 nM each time.

For `CCC(CC)n1cc(-c2nc(-c3cnn(C4CCN(C(=O)COC)CC4)c3)cn3nccc23)cn1` [Example 33, 2-methoxy-1-(4-(4-(4-(1-(pentan-3-yl)-1H-pyrazol-4-yl)pyrazolo[1,5-a]pyrazin-6-yl)-1H-pyrazol-1-yl)piperidin-1-yl)ethanone], the IC50 in assay [1] (setting [5]) and in assay [2] (setting [6]) was less than 10 nM each time.

For `CCC(CC)n1cc(-c2nc(-c3cnn(C4CCN(C(=O)NC)CC4)c3)cn3nccc23)cn1` [Example 34, N-methyl-4-(4-(4-(1-(pentan-3-yl)-1H-pyrazol-4-yl)pyrazolo[1,5-a]pyrazin-6-yl)-1H-pyrazol-1-yl)piperidine-1-carboxamide], the IC50 in assay [1] (setting [5]) was less than 10 nM. As to `CCC(CC)n1cc(-c2nc(-c3cnn(C4CCN(C(=O)CN)CC4)c3)cn3nccc23)cn1` [Example 36, 2-amino-1-(4-(4-(4-(1-(pentan-3-yl)-1H-pyrazol-4-yl)pyrazolo[1,5-a]pyrazin-6-yl)-1H-pyrazol-1-yl)piperidin-1-yl)ethanone], the IC50 in assay [1] (setting [5]) and in assay [2] (setting [6]) was less than 10 nM in each case. For `CC[C@@H](C)n1cc(-c2nc(-c3cnn(C(CO)CO)c3)cn3nccc23)cn1` [Example 85, (R)-2-(4-(4-(1-(sec-butyl)-1H-pyrazol-4-yl)pyrazolo[1,5-a]pyrazin-6-yl)-1H-pyrazol-1-yl)propane-1,3-diol], the IC50 in assay [1] (setting [5]) was less than 10 nM.

Take `CCC[C@H](C)n1cc(-c2nc(-c3cnn(C[C@H](O)CO)c3)cn3nccc23)cn1` [Example 86, (S)-3-(4-(4-(1-((S)-pentan-2-yl)-1H-pyrazol-4-yl)pyrazolo[1,5-a]pyrazin-6-yl)-1H-pyrazol-1-yl)propane-1,2-diol]: the half-maximal inhibitory concentration (IC50) in assay [2] (setting [6]) is less than 10 nM. `CC1(C)CCC[C@@H]1n1cc(-c2nc(-c3cnn(C[C@@H](O)CO)c3)cn3nccc23)cn1` [Example 95, (R)-3-(4-(4-(1-((S)-2,2-dimethylcyclopentyl)-1H-pyrazol-4-yl)pyrazolo[1,5-a]pyrazin-6-yl)-1H-pyrazol-1-yl)propane-1,2-diol]: the IC50 in assay [1] (setting [5]) is 1000 to 10000 nM.

Consider `CCC(CC)n1cc(-c2nc(-c3cnn([C@H]4CC[C@H](O)CC4)c3)cn3nccc23)cn1` [Example 118, trans-4-(4-(4-(1-(pentan-3-yl)-1H-pyrazol-4-yl)pyrazolo[1,5-a]pyrazin-6-yl)-1H-pyrazol-1-yl)cyclohexanol], for which, in assay [3], the IC50 lay in the range of 1000 to 10000 nM. Same read-out and setting: the same measure for `CCC(CC)n1cc(-c2nc(-c3cnn([C@H]4CC[C@@H](O)CC4)c3)cn3nccc23)cn1` [Example 121, cis-4-(4-(4-(1-(pentan-3-yl)-1H-pyrazol-4-yl)pyrazolo[1,5-a]pyrazin-6-yl)-1H-pyrazol-1-yl)cyclohexanol]: 1000 to 10000 nM. As for `CCC(CC)n1cc(-c2nc(-c3cnn([C@@H]4C[C@@H](O)[C@@H](O)C4)c3)cn3nccc23)cn1` [Example 132, (1R,2S,4s)-4-(4-(4-(1-(pentan-3-yl)-1H-pyrazol-4-yl)pyrazolo[1,5-a]pyrazin-6-yl)-1H-pyrazol-1-yl)cyclopentane-1,2-diol], the IC50 was 10 to 100 nM in assay [1] (setting [5]) and 100 to 1000 nM in assay [4] (read-out: JAK1 Enzyme IC50 1 mM ATP, averaged IC50 ranges). Regarding `CCC(CC)n1cc(-c2nc(-c3cnn(C4CC(C(N)=O)C4)c3)cn3nccc23)cn1` (centres unmarked) [Example 168, (1s,3s)-3-(4-(4-(1-(pentan-3-yl)-1H-pyrazol-4-yl)pyrazolo[1,5-a]pyrazin-6-yl)-1H-pyrazol-1-yl)cyclobutanecarboxamide], the IC50 in assay [4] (setting [7]) was 1000 to 10000 nM. Turning to `CCC(CC)n1cc(-c2nc(-c3cnn(C4CN(C(=O)C(C)(C)O)C4)c3)cn3nccc23)cn1` [Example 176, 2-hydroxy-2-methyl-1-(3-(4-(4-(1-(pentan-3-yl)-1H-pyrazol-4-yl)pyrazolo[1,5-a]pyrazin-6-yl)-1H-pyrazol-1-yl)azetidin-1-yl)propan-1-one], the IC50 in assay [2] (setting [6]) is less than 10 nM. For the compound `CCC(CC)n1cc(-c2nc(-c3cnn(C4CN(C(=O)C5(O)CC5)C4)c3)cn3nccc23)cn1` [Example 177, (1-hydroxycyclopropyl)(3-(4-(4-(1-(pentan-3-yl)-1H-pyrazol-4-yl)pyrazolo[1,5-a]pyrazin-6-yl)-1H-pyrazol-1-yl)azetidin-1-yl)methanone], in assay [2] (setting [6]), the IC50 was less than 10 nM. Turning to `CCC(CC)n1cc(-c2nc(-c3cnn([C@@H]4CCC[C@@H]4O)c3)cn3nccc23)cn1` [Example 189, (1S,2R)-2-(4-(4-(1-(pentan-3-yl)-1H-pyrazol-4-yl)pyrazolo[1,5-a]pyrazin-6-yl)-1H-pyrazol-1-yl)cyclopentanol], the IC50 in assay [1] is 10 to 100 nM; in assay [2] it was 10 to 100 nM; in assay [4] (setting [7]), 1000 to 10000 nM.

(Values after patent publication US10730880B2, “4,6-substituted-pyrazolo[1,5-a]pyrazines as Janus kinase inhibitors” (Array BioPharma Inc., priority 2014, dated 2020).)
